Results reported in patent US20170190671A1, “BIS(ARYL)CATECHOL DERIVATIVES AS HERBICIDES” (E I DU PONT DE NEMOURS AND COMPANY, priority 2014, published 2017).

Legend:
Assay type in all cases: in vivo
[1] = test system: pigweed (Amaranthus retroflexus); experiment: Test C preemergence; conditions: Amaranthus retroflexus, pre-emergence, 336 h, preemergence, scale 0 to 100, read-out: Plant response rating, Pigweed
Procedure, shortened: (§1)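 Seeds sown in a loam soil and sand blend were treated preemergence; plants in peat-moss/vermiculite medium were sprayed at the 1- to 4-leaf stage (2-18 cm). Chemicals were in a non-phytotoxic surfactant-containing solvent. After 13 to 15 days in a greenhouse, injury was visually rated against controls on a 0-100 scale.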

[2] = test system: morningglory (Ipomoea coccinea); experiment: Test C preemergence; conditions: Ipomoea, pre-emergence, 336 h, preemergence, scale 0 to 100, read-out: Plant response rating, Morningglory
Procedure, shortened: as §1

[3] = test system: johnsongrass (Sorghum halepense); experiment: Test C preemergence; conditions: Sorghum halepense, pre-emergence, 336 h, preemergence, scale 0 to 100, read-out: Plant response rating, Johnsongrass
Procedure, shortened: as §1

[4] = test system: winter wheat (Triticum aestivum); experiment: Test C postemergence; conditions: Triticum aestivum, post-emergence, 336 h, Postemergence, scale 0 to 100, read-out: Plant response rating, Wheat
Procedure, shortened: as §1

[5] = test system: large (Lg) crabgrass (Digitaria sanguinalis); experiment: Test C postemergence; conditions: Digitaria sanguinalis, post-emergence, 336 h, Postemergence, scale 0 to 100, read-out: Plant response rating, Crabgrass, Large
Procedure, shortened: as §1

corn (Zea mays) = experiment: Test C postemergence; conditions: Zea mays, post-emergence, 336 h, Postemergence, scale 0 to 100
Procedure, shortened: as §1

[6] = test system: pigweed (Amaranthus retroflexus); experiment: Test C postemergence; conditions: Amaranthus retroflexus, post-emergence, 336 h, Postemergence, scale 0 to 100, read-out: Plant response rating, Pigweed
Procedure, shortened: as §1

[7] = test system: ragweed (common ragweed, Ambrosia elatior); experiment: Test C postemergence; conditions: Ambrosia artemisiifolia, post-emergence, 336 h, Postemergence, scale 0 to 100, read-out: Plant response rating, Ragweed
Procedure, shortened: as §1

[8] = test system: morningglory (Ipomoea coccinea); experiment: Test C postemergence; conditions: Ipomoea, post-emergence, 336 h, Postemergence, scale 0 to 100, read-out: Plant response rating, Morningglory
Procedure, shortened: as §1

[9] = test system: chickweed (common chickweed, Stellaria media); experiment: Test C postemergence; conditions: Stellaria media, post-emergence, Postemergence, scale 0 to 100, read-out: Plant response rating, Chickweed
Procedure, shortened: as §1

[10] = test system: giant foxtail (Setaria faberii); experiment: Test C postemergence; conditions: Setaria faberi, post-emergence, 336 h, Postemergence, scale 0 to 100, read-out: Plant response rating, Foxtail, Giant
Procedure, shortened: as §1

[11] = test system: velvetleaf (Abutilon theophrasti); experiment: Test C postemergence; conditions: Abutilon theophrasti, post-emergence, Postemergence, scale 0 to 100, read-out: Plant response rating, Velvetleaf
Procedure, shortened: as §1

[12] = test system: barnyardgrass (Echinochloa crus-galli); experiment: Test C postemergence; conditions: Echinochloa crus-galli, post-emergence, Postemergence, scale 0 to 100, read-out: Plant response rating, Barnyardgrass
Procedure, shortened: as §1

[13] = test system: waterhemp (common waterhemp, Amaranthus rudis); experiment: Test C postemergence; conditions: Amaranthus tuberculatus, post-emergence, Postemergence, scale 0 to 100, read-out: Plant response rating, Waterhemp
Procedure, shortened: as §1

[14] = test system: johnsongrass (Sorghum halepense); experiment: Test C postemergence; conditions: Sorghum halepense, post-emergence, 336 h, Postemergence, scale 0 to 100, read-out: Plant response rating, Johnsongrass
Procedure, shortened: as §1

[15] = test system: yellow nutsedge (Cyperus esculentus); experiment: Test C postemergence; conditions: Cyperus, post-emergence, 336 h, Postemergence, scale 0 to 100, read-out: Plant response rating, Nutsedge, Yellow
Procedure, shortened: as §1

[16] = test system: blackgrass (Alopecurus myosuroides); experiment: Test C postemergence; conditions: Alopecurus myosuroides, post-emergence, 336 h, Postemergence, scale 0 to 100, read-out: Plant response rating, Blackgrass
Procedure, shortened: as §1

[17] = test system: galium (catchweed bedstraw, Galium aparine); experiment: Test C postemergence; conditions: Galium, post-emergence, 336 h, Postemergence, scale 0 to 100, read-out: Plant response rating, Galium
Procedure, shortened: as §1

soybean (Glycine max) = experiment: Test C postemergence; conditions: Glycine max, post-emergence, Postemergence, scale 0 to 100, read-out: Plant response rating, Soybean
Procedure, shortened: as §1

[18] = test system: oilseed rape (Brassica napus); experiment: Test C postemergence; conditions: Brassica napus, post-emergence, Postemergence, scale 0 to 100, read-out: Plant response rating, Oilseed Rape
Procedure, shortened: as §1

[19] = test system: lambsquarters (Chenopodium album); experiment: Test C postemergence; conditions: Chenopodium album, post-emergence, 336 h, Postemergence, scale 0 to 100, read-out: Plant response rating, Lambsquarters
Procedure, shortened: as §1

kochia (Kochia scoparia) = experiment: Test C postemergence; conditions: Bassia scoparia, post-emergence, Postemergence, scale 0 to 100, read-out: Plant response rating, Kochia
Procedure, shortened: as §1

## Fc1cnc(Oc2c(Br)cccc2Oc2ncc(Cl)cn2)nc1 [Compound 22]
[1]; 31 g ai/ha
  pest or weed control at 31 g/ha: 100%
[1]; 62 g ai/ha
  pest or weed control at 62 g/ha: 100%
[1]; 125 g ai/ha
  pest or weed control at 125 g/ha: 100%
[2]; 31 g ai/ha
  pest or weed control at 31 g/ha: 0%
[2]; 62 g ai/ha
  pest or weed control at 62 g/ha: 65%
[2]; 125 g ai/ha
  pest or weed control at 125 g/ha: 95%
[3]; 31 g ai/ha
  pest or weed control at 31 g/ha: 10%
[3]; 62 g ai/ha
  pest or weed control at 62 g/ha: 30%
[3]; 125 g ai/ha
  pest or weed control at 125 g/ha: 70%
[4]; 31 g ai/ha
  plant injury at 31 g/ha: 0%
[4]; 62 g ai/ha
  plant injury at 62 g/ha: 0%
[4]; 125 g ai/ha
  plant injury at 125 g/ha: 0%
[4]; 250 g ai/ha
  plant injury at 250 g/ha: 0%
[5]; 31 g ai/ha
  pest or weed control at 31 g/ha: 5%
[5]; 62 g ai/ha
  pest or weed control at 62 g/ha: 15%
[5]; 125 g ai/ha
  pest or weed control at 125 g/ha: 25%
[5]; 250 g ai/ha
  pest or weed control at 250 g/ha: 20%
Corn (Zea mays); 31 g ai/ha
  Corn plant response rating (crop injury, 0 = no effect, 100 = complete kill) at 31 g/ha: 5%
Corn (Zea mays); 62 g ai/ha
  Corn plant response rating (crop injury, 0 = no effect, 100 = complete kill) at 62 g/ha: 10%
Corn (Zea mays); 125 g ai/ha
  Corn plant response rating (crop injury, 0 = no effect, 100 = complete kill) at 125 g/ha: 10%
Corn (Zea mays); 250 g ai/ha
  Corn plant response rating (crop injury, 0 = no effect, 100 = complete kill) at 250 g/ha: 10%
[6]; 31 g ai/ha
  pest or weed control at 31 g/ha: 75%
[6]; 62 g ai/ha
  pest or weed control at 62 g/ha: 85%
[6]; 125 g ai/ha
  pest or weed control at 125 g/ha: 90%
[6]; 250 g ai/ha
  pest or weed control at 250 g/ha: 100%
[7]; 31 g ai/ha
  pest or weed control at 31 g/ha: 30%
[7]; 62 g ai/ha
  pest or weed control at 62 g/ha: 35%
[7]; 125 g ai/ha
  pest or weed control at 125 g/ha: 90%
[7]; 250 g ai/ha
  pest or weed control at 250 g/ha: 90%
[8]; 31 g ai/ha
  pest or weed control at 31 g/ha: 80%
[8]; 62 g ai/ha
  pest or weed control at 62 g/ha: 70%
[8]; 125 g ai/ha
  pest or weed control at 125 g/ha: 85%
[8]; 250 g ai/ha
  pest or weed control at 250 g/ha: 80%
[9]; 31 g ai/ha
  pest or weed control at 31 g/ha: 50%
[9]; 62 g ai/ha
  pest or weed control at 62 g/ha: 50%
[9]; 125 g ai/ha
  pest or weed control at 125 g/ha: 55%
[9]; 250 g ai/ha
  pest or weed control at 250 g/ha: 80%
[10]; 31 g ai/ha
  pest or weed control at 31 g/ha: 5%
[10]; 62 g ai/ha
  pest or weed control at 62 g/ha: 5%
[10]; 125 g ai/ha
  pest or weed control at 125 g/ha: 10%
[10]; 250 g ai/ha
  pest or weed control at 250 g/ha: 20%
[11]; 31 g ai/ha
  pest or weed control at 31 g/ha: 30%
[11]; 62 g ai/ha
  pest or weed control at 62 g/ha: 65%
[11]; 125 g ai/ha
  pest or weed control at 125 g/ha: 70%
[11]; 250 g ai/ha
  pest or weed control at 250 g/ha: 70%
[12]; 31 g ai/ha
  pest or weed control at 31 g/ha: 5%
[12]; 62 g ai/ha
  pest or weed control at 62 g/ha: 5%
[12]; 125 g ai/ha
  pest or weed control at 125 g/ha: 15%
[12]; 250 g ai/ha
  pest or weed control at 250 g/ha: 10%
[13]; 31 g ai/ha
  pest or weed control at 31 g/ha: 70%
[13]; 62 g ai/ha
  pest or weed control at 62 g/ha: 85%
[13]; 125 g ai/ha
  pest or weed control at 125 g/ha: 95%
[13]; 250 g ai/ha
  pest or weed control at 250 g/ha: 95%
[14]; 31 g ai/ha
  pest or weed control at 31 g/ha: 0%
[14]; 62 g ai/ha
  pest or weed control at 62 g/ha: 0%
[14]; 125 g ai/ha
  pest or weed control at 125 g/ha: 5%
[14]; 250 g ai/ha
  pest or weed control at 250 g/ha: 5%
[15]; 31 g ai/ha
  pest or weed control at 31 g/ha: 5%
[15]; 62 g ai/ha
  pest or weed control at 62 g/ha: 5%
[15]; 125 g ai/ha
  pest or weed control at 125 g/ha: 10%
[15]; 250 g ai/ha
  pest or weed control at 250 g/ha: 10%
[16]; 31 g ai/ha
  pest or weed control at 31 g/ha: 5%
[16]; 62 g ai/ha
  pest or weed control at 62 g/ha: 5%
[16]; 125 g ai/ha
  pest or weed control at 125 g/ha: 5%
[16]; 250 g ai/ha
  pest or weed control at 250 g/ha: 10%
[17]; 31 g ai/ha
  pest or weed control at 31 g/ha: 70%
[17]; 62 g ai/ha
  pest or weed control at 62 g/ha: 90%
[17]; 125 g ai/ha
  pest or weed control at 125 g/ha: 90%
[17]; 250 g ai/ha
  pest or weed control at 250 g/ha: 95%
Soybean (Glycine max); 31 g ai/ha
  plant injury at 31 g/ha: 40%
Soybean (Glycine max); 62 g ai/ha
  plant injury at 62 g/ha: 75%
Soybean (Glycine max); 125 g ai/ha
  plant injury at 125 g/ha: 90%
Soybean (Glycine max); 250 g ai/ha
  plant injury at 250 g/ha: 0%
[18]; 31 g ai/ha
  plant injury at 31 g/ha: 40%
[18]; 62 g ai/ha
  plant injury at 62 g/ha: 40%
[18]; 125 g ai/ha
  plant injury at 125 g/ha: 60%
[18]; 250 g ai/ha
  plant injury at 250 g/ha: 35%
[19]; 31 g ai/ha
  pest or weed control at 31 g/ha: 70%
[19]; 62 g ai/ha
  pest or weed control at 62 g/ha: 75%
[19]; 125 g ai/ha
  pest or weed control at 125 g/ha: 95%
[19]; 250 g ai/ha
  pest or weed control at 250 g/ha: 98%
Kochia (Kochia scoparia); 31 g ai/ha
  pest or weed control at 31 g/ha: 45%
Kochia (Kochia scoparia); 62 g ai/ha
  pest or weed control at 62 g/ha: 60%
Kochia (Kochia scoparia); 125 g ai/ha
  pest or weed control at 125 g/ha: 85%
Kochia (Kochia scoparia); 250 g ai/ha
  pest or weed control at 250 g/ha: 90%
